The record followed here is patent publication US11377425B1, “Small molecule modulators of IL-17” (LEO Pharma A/S, priority 2018, dated 2022).

pEC50: −log10 of the molar value.

The test concerns the target T1, human IL-17AA (Homo sapiens, UniProt Q16552).
T1 construct: host or cells: HEK (human embryonic kidney) cells
T1 sequence (Q16552 24-155): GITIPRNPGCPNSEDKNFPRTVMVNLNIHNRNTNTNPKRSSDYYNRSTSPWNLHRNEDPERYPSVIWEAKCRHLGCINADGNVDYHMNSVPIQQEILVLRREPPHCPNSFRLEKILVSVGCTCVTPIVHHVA
Put plainly: IL-8 release assay in human epithelial keratinocytes adult (HEKa). Type of test: cell-based. The note with it: HEKa cells, 3 ng/mL HEK-human IL-17AA + 10 ng/mL human TNFalpha; read-out: Rel EC50 IL-8 release assay. On the procedure:
Example 138: IL-8 Release Assay in Human Epithelial Keratinocytes Adult (HEKa)
Keratinocytes were seeded at 3500 cells/well in 384-well ViewPlates (Perkin Elmer) in Epilife medium (Thermo Fisher) containing human keratinocyte growth supplement (HKGS) without hydrocortisone and incubated in a humid incubator at 37° C. 5% CO2, overnight. The following day growth medium was removed and 25 μl fresh Epilife medium added. 75 nL test compound in 100% DMSO was added into each well reserved for test compounds, by the use of acoustic pipetting. The remaining wells received an equal volume of DMSO only, as vehicle control, or terfenadine in DMSO, as a positive control for any cytotoxic compounds. Subsequently, another 25 μL Epilife medium was added to each well. Finally, wells containing test compounds and wells prepared to yield maximum stimulation received […] of 9 ng/mL recombinant, human embryonic kidney cell (HEK)-derived human IL-17AA+30 ng/mL human TNF-alpha, in Epilife medium. Wells prepared to define 100% inhibition of IL-17 effects received 25 μL of 30 ng/mL human TNF-alpha alone, in Epilife medium. Final concentrations were 3 ng/mL HEK-human IL-17AA+10 ng/mL human TNFalpha (maximum stimulation) and 10 ng/mL human TNFalpha alone (100% inhibition, Emax), respectively. Cells were incubated for 68-72 hours in the incubator. IL-8 released from the cells was measured by the use of a commercial homogenous time-resolved fluorescence (HTRF) assay (CisBio). 2 μL cell culture supernatant was transferred to a 384-well Proxiplate. 5 μL HTRF reagent was added and the plates incubated sealed in the dark for 3-22 hours at room temperature. Time-resolved fluorescence was read at 665 vs 620 nm, with excitation at 320 nm, and IL-8 levels calculated as percent of controls. Reduction of the amount of secreted IL-8 indicates decreased IL-17 signaling. Concentration response curves were fitted by the use of a four-parameter logistic equation. Relative IC50 and Emax were reported from curves showing acceptable fit (r^2>0.9). Cytotoxicity was measured in the cell-containing Viewplates following addition of 7 μL PrestoBlue (Thermo Fisher) and incubation for 2.5-3 hours at room temperature, by measuring fluorescence at 615 nm (excitation at 535 nm). Fluorescence was directly proportional to the amount of metabolic activity. Reduction of fluorescence signal indicated cytotoxicity.
Compounds of the present invention were tested in the IL-8 release assay in human epithelial keratinocytes.
Compounds having a Relative EC50 of X; wherein X<100 nM; are indicated with *
Compounds having a Relative EC50 of X; wherein 100 nM<X<1000 nM; are indicated with **
Compounds having a Relative EC50 of X; wherein 1000 nM<X; are indicated with ***

What is called pEC50 is −log10 of the EC50, conventionally taken in molar units. In the case of `Cc1n[nH]c(C)c1-c1ccc(NC(=O)C(NC(=O)c2ccnn2CCC(C)O)C2CCCCCCC2)cc1` (single isomer, unassigned) [Example 145, N-[1-cyclooctyl-2-[4-(3,5-dimethyl-1H-pyrazol-4-yl)anilino]-2-oxo-ethyl]-2-(3-hydroxybutyl)pyrazole-3-carboxamide], the pEC50 is above 7.00.

Turning to `Cc1n[nH]c(C)c1-c1ccc(NC(=O)C(NC(=O)c2ccnn2[C@@H](C)CO)C2CCCCCCC2)cc1` (single isomer, unassigned) [Example 150], the pEC50 was below 6.00. Next, `Cc1n[nH]c(C)c1-c1ccc(NC(=O)C(NC(=O)c2ccnn2[C@@H](C)CO)C2CCCCCCC2)cc1` (single isomer, unassigned) [Example 151]: above 7.00; `Cc1n[nH]c(C)c1-c1ccc(NC(=O)C(NC(=O)c2ccnn2C(C)C)C2CCCCCCC2)cc1` (single isomer, unassigned) [Example 152, N-[1-cyclooctyl-2-[4-(3,5-dimethyl-1H-pyrazol-4-yl)anilino]-2-oxo-ethyl]-2-(1-methylethyl)pyrazole-3-carboxamide]: above 7.00; `Cc1n[nH]c(C)c1-c1ccc(NC(=O)C(NC(=O)c2ccnn2C(C)C)C2CCCCCCC2)cc1` (single isomer, unassigned) [Example 153, N-[1-cyclooctyl-2-[4-(3,5-dimethyl-1H-pyrazol-4-yl)anilino]-2-oxo-ethyl]-2-(1-methylethyl)pyrazole-3-carboxamide]: 6.00 to 7.00. As for `CCn1nccc1C(=O)NC(C(=O)Nc1ccc(-c2c(C)n[nH]c2C)cc1)C1CCCCCCC1` (single isomer, unassigned) [Example 154, N-[1-cyclooctyl-2-[4-(3,5-dimethyl-1H-pyrazol-4-yl)anilino]-2-oxo-ethyl]-2-ethyl-pyrazole-3-carboxamide], the pEC50 is 6.00 to 7.00. Next, `CCn1nccc1C(=O)NC(C(=O)Nc1ccc(-c2c(C)n[nH]c2C)cc1)C1CCCCCCC1` (single isomer, unassigned) [Example 155, N-[1-cyclooctyl-2-[4-(3,5-dimethyl-1H-pyrazol-4-yl)anilino]-2-oxo-ethyl]-2-ethyl-pyrazole-3-carboxamide]: above 7.00; `Cc1n[nH]c(C)c1-c1ccc(NC(=O)C(NC(=O)c2ccnn2C)C2CCCCCCC2)cc1` (single isomer, unassigned) [Example 156, N-[1-cyclooctyl-2-[4-(3,5-dimethyl-1H-pyrazol-4-yl)anilino]-2-oxo-ethyl]-2-methyl-pyrazole-3-carboxamide]: above 7.00; `Cc1n[nH]c(C)c1-c1ccc(NC(=O)C(NC(=O)c2ccnn2C)C2CCCCCCC2)cc1` (single isomer, unassigned) [Example 157, N-[1-cyclooctyl-2-[4-(3,5-dimethyl-1H-pyrazol-4-yl)anilino]-2-oxo-ethyl]-2-methyl-pyrazole-3-carboxamide]: below 6.00. Next, `Cc1n[nH]c(C)c1-c1ccc(NC(=O)[C@@H](NC(=O)c2ccnn2C)C(C)CC2CC2)cc1` (single isomer, unassigned) [Example 159]: 6.00 to 7.00. With `Cc1n[nH]c(C)c1-c1ccc(NC(=O)[C@@H](NC(=O)c2ccnn2C)C(C)CC2CC2)cc1` (single isomer, unassigned) [Example 160] the figure was 6.00 to 7.00; with `Cc1n[nH]c(C)c1-c1ccc(NC(=O)[C@@H](NC(=O)c2ccnn2[C@H](C)CO)C(C)C2CCC2)cc1` (single isomer, unassigned) [Example 164], 6.00 to 7.00; with `Cc1n[nH]c(C)c1-c1ccc(NC(=O)[C@@H](NC(=O)c2ccnn2[C@H](C)CO)C(C)C2CCC2)cc1` (single isomer, unassigned) [Example 165], 6.00 to 7.00. With `Cc1n[nH]c(C)c1-c1ccc(NC(=O)[C@@H](NC(=O)c2ccnn2[C@@H](C)CO)C(C)C2CCC2)cc1` (single isomer, unassigned) [Example 173], the pEC50 is above 7.00.

`Cc1n[nH]c(C)c1-c1ccc(NC(=O)[C@@H](NC(=O)c2ccnn2[C@@H](C)CO)C(C)C2CCC2)cc1` (single isomer, unassigned) [Example 174]: the pEC50 was 6.00 to 7.00.

Turning to `Cc1n[nH]c(C)c1-c1ccc(NC(=O)[C@@H](NC(=O)c2ccnn2C(C)CO)C(C)C(C)(C)C)cc1` (single isomer, unassigned) [Example 175], the negative-log EC50 (pEC50) is 6.00 to 7.00.

As for `Cc1n[nH]c(C)c1-c1ccc(NC(=O)[C@@H](NC(=O)c2ccnn2C(C)CO)C(C)C(C)(C)C)cc1` (single isomer, unassigned) [Example 176], the negative logarithm of the EC50 (pEC50) was 6.00 to 7.00. Next, `Cc1n[nH]c(C)c1-c1ccc(NC(=O)[C@@H](NC(=O)c2ccnn2C(C)CO)C(C)C(C)(C)C)cc1` (single isomer, unassigned) [Example 177]: 6.00 to 7.00; `Cc1n[nH]c(C)c1-c1ccc(NC(=O)[C@@H](NC(=O)c2ccnn2C(C)CO)C(C)C(C)(C)C)cc1` (single isomer, unassigned) [Example 178]: above 7.00; `Cc1n[nH]c(C)c1-c1ccc(NC(=O)[C@@H](NC(=O)c2ccnn2C(C)CO)C2C3CC4CC(C3)CC2C4)cc1` (single isomer, unassigned) [Example 187]: above 7.00. Next, `Cc1n[nH]c(C)c1-c1ccc(NC(=O)[C@@H](NC(=O)c2ccnn2C(C)CO)C2C3CC4CC(C3)CC2C4)cc1` (single isomer, unassigned) [Example 188]: above 7.00.

`Cc1n[nH]c(C)c1-c1ccc(NC(=O)[C@@H](NC(=O)c2ccnn2C(C)C)C(C)C2CCC2)cc1` (single isomer, unassigned) [Example 190]: the pEC50 was above 7.00. With `Cc1n[nH]c(C)c1-c1ccc(NC(=O)[C@@H](NC(=O)c2ccnn2C(C)C)C(C)C2CCC2)cc1` (single isomer, unassigned) [Example 191] the figure was 6.00 to 7.00; with `CCn1nccc1C(=O)N[C@H](C(=O)Nc1ccc(-c2c(C)n[nH]c2C)cc1)C(C)C1CCC1` (single isomer, unassigned) [Example 192], above 7.00; with `CCn1nccc1C(=O)N[C@H](C(=O)Nc1ccc(-c2c(C)n[nH]c2C)cc1)C(C)C1CCC1` (single isomer, unassigned) [Example 193], 6.00 to 7.00. `Cc1n[nH]c(C)c1-c1ccc(NC(=O)[C@@H](NC(=O)c2ccnn2C)C(C)C2CCC2)cc1` (single isomer, unassigned) [Example 194]: the pEC50 is above 7.00. With `Cc1n[nH]c(C)c1-c1ccc(NC(=O)[C@@H](NC(=O)c2ccnn2C)C(C)C2CCC2)cc1` (single isomer, unassigned) [Example 195] the figure was 6.00 to 7.00; with `Cc1n[nH]c(C)c1-c1ccc(NC(=O)[C@@H](NC(=O)c2ccnn2C(C)CO)[C@H]2CC[C@H](C)CC2)cc1` (single isomer, unassigned) [Example 204], above 7.00. Next, `Cc1n[nH]c(C)c1-c1ccc(NC(=O)[C@@H](NC(=O)c2ccnn2C(C)CO)[C@H]2CC[C@H](C)CC2)cc1` (single isomer, unassigned) [Example 205]: above 7.00; `Cc1n[nH]c(C)c1-c1ccc(NC(=O)[C@@H](NC(=O)c2ccnn2C(C)CO)[C@@H]2CC(C)(C)CCC2(F)F)cc1` (single isomer, unassigned) [Example 210]: above 7.00.
